Experimental data taken from US12173018B2, “Penicillin-binding protein inhibitors” (priority 2018, dated 2024).
Where two headings read alike, the source gives them in different places.

Tests used:
E. coli PBP3 = E. coli PBP3 (Escherichia coli (strain K12), UniProt P0AD68); assay: E. coli PBP3 Bocillin-FL fluorescence polarization competition binding assay
How it was run: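 Competition against 0.1 μM Bocillin-FL for binding to 1.5 μM purified protein, read by fluorescence polarization for 60 min. Compounds tested from 0 to 1000 μM; EC50 taken as the concentration reducing probe binding.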

A. baumannii ATCC 19606 = assay: Broth microdilution MIC, A. baumannii ATCC 19606; format: cell-based; settings: Acinetobacter baumannii
How it was run: (§1)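 Strains are tested by standard CLSI broth microdilution. Log-phase cells, diluted by OD600 to 5×10^5 CFU/mL, meet 2-fold compound series and incubate 16-20 hours at 37° C before the lowest growth-free concentration is recorded.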

[1] = tested on: P. aeruginosa (ΔmexAB-oprM); assay: microbe, parasite or virus in culture; format: cell-based; settings: Pseudomonas aeruginosa, read-out: MIC P. aeruginosa ΔmexAB-OprM
How it was run: as §1

P. aeruginosa ATCC 35151 = assay: microbe, parasite or virus in culture; format: cell-based; settings: Pseudomonas aeruginosa, ATCC35151; hyper-permeable P. aeruginosa ATCC 35151; read-out: MIC P. aeruginosa ATCC 35151
How it was run: as §1

[2] = fluorescence polarization competition binding with Bocillin-FL, read-out: E. coli K12 PBP3 Potency
[3] = ATCC19606, A. baumannii ATCC 19606, broth microdilution, read-out: MIC A. baumannii ATCC 19606

Sequence of E. coli PBP3 (P0AD68 whole entry): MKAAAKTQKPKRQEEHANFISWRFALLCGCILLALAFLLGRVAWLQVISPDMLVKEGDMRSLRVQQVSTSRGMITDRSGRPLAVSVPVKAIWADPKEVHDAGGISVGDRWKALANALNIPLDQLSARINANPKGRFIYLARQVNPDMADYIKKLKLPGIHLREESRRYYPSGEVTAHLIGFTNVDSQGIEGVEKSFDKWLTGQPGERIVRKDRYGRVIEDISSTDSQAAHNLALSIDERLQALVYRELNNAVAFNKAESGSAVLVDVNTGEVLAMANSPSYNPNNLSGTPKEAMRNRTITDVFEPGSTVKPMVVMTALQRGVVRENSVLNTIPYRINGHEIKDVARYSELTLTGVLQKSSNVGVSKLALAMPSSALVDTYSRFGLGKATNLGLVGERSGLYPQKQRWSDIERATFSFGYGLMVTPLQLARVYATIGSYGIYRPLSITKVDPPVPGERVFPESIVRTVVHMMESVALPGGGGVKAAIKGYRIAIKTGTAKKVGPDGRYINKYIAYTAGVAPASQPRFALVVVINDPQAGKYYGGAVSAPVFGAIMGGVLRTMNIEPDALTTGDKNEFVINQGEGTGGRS

Row | SMILES | EC50 (E. coli PBP3; [2]) [µM] | EC50 (E. coli PBP3) [µM] | MIC [1] [µg/mL] | MIC (P. aeruginosa ATCC 35151) [µg/mL] | also measured
1 | CCN1CCN(C(=O)NC(C(=O)N[C@H]2Cc3cccc(C(=O)O)c3OB2O)c2ccc(O)c(O)c2Cl)C(=O)C1=O (stereo partly drawn) [Example 37, (3R)-3-(2-(2-chloro-3,4-dihydroxyphenyl)-2-(4-ethyl-2,3-dioxopiperazine-1-carboxamido)acetamido)-2-hydroxy-3,4-dihydro-2H-benzo[e][1,2]oxaborinine-8-carboxylic acid] | < 30 | – | – | – | –
2 | CCCN1CCN(C(=O)NC(C(=O)N[C@H]2Cc3cccc(C(=O)O)c3OB2O)c2ccc(O)c(O)c2Cl)C(=O)C1=O (stereo partly drawn) [Example 82, (3R)-3-(2-(2-chloro-3,4-dihydroxyphenyl)-2-(2,3-dioxo-4-propylpiperazine-1-carboxamido)acetamido)-2-hydroxy-3,4-dihydro-2H-benzo[e][1,2]oxaborinine-8-carboxylic acid] | < 30 | – | – | – | –
3 | CCN1CCN(C(=O)NC(C(=O)N[C@H]2Cc3cccc(C(=O)[O-])c3OB2O)c2ccc[n+](CC(N)=O)c2)C(=O)C1=O (stereo partly drawn) [Example 107, (3R)-3-(2-(1-(2-amino-2-oxoethyl)pyridin-1-ium-3-yl)-2-(4-ethyl-2,3-dioxopiperazine-1-carboxamido)acetamido)-2-hydroxy-3,4-dihydro-2H-benzo[e][1,2]oxaborinine-8-carboxylate] | > 500 | – | – | – | –
4 | CCN1CCN(C(=O)NC(C(=O)N[C@H]2Cc3cccc(C(=O)O)c3OB2O)c2ccc(B(O)O)cc2)C(=O)C1=O (stereo partly drawn) [Example 112] | – | 30 to 500 | – | – | –
5 | O=C(O)c1cccc2c1OB(O)[C@@H](NC(=O)C(NC(=O)N1CCN(CCF)C(=O)C1=O)c1ccc(B(O)O)cc1)C2 (stereo partly drawn) [Example 113, (3R)-3-(2-(4-boronophenyl)-2-(4-(2-fluoroethyl)-2,3-dioxopiperazine-1-carboxamido)acetamido)-2-hydroxy-3,4-dihydro-2H-benzo[e][1,2]oxaborinine-8-carboxylic acid] | – | 30 to 500 | – | – | –
6 | CCN1CCN(C(=O)NC(C(=O)N[C@H]2Cc3cccc(C(=O)O)c3OB2O)c2cccs2)C(=O)C1=O (stereo partly drawn) [Example 115, (3R)-3-(2-(4-ethyl-2,3-dioxopiperazine-1-carboxamido)-2-(thiophen-2-yl)acetamido)-2-hydroxy-3,4-dihydro-2H-benzo[e][1,2]oxaborinine-8-carboxylic acid] | < 30 | – | – | – | –
7 | NCCCN1CCN(C(=O)NC(C(=O)N[C@H]2Cc3cccc(C(=O)O)c3OB2O)c2ccc(O)c(O)c2Cl)C(=O)C1=O (stereo partly drawn) [Example 233, (3R)-3-(2-(4-(3-aminopropyl)-2,3-dioxopiperazine-1-carboxamido)-2-(2-chloro-3,4-dihydroxyphenyl)acetamido)-2-hydroxy-3,4-dihydro-2H-benzo[e][1,2]oxaborinine-8-carboxylic acid] | – | 30 to 500 | < 0.25 | < 0.25 | MIC (A. baumannii ATCC 19606; [3]): 2 to 4 µg/mL
8 | CCN1C[C@H](CO)N(C(=O)NC(C(=O)N[C@H]2Cc3cccc(C(=O)O)c3OB2O)c2ncc(O)cc2F)C(=O)C1=O (stereo partly drawn) [Example 234, (3R)-3-(2-((R)-4-ethyl-6-(hydroxymethyl)-2,3-dioxopiperazine-1-carboxamido)-2-(3-fluoro-5-hydroxypyridin-2-yl)acetamido)-2-hydroxy-3,4-dihydro-2H-benzo[e][1,2]oxaborinine-8-carboxylic acid] | < 30 | – | 32 to 64 | 8 to 16 | MIC (A. baumannii ATCC 19606; ATCC19606, read-out: MIC A. baumannii ATCC 19606): > 128 µg/mL
9 | CCNC(=O)NCCN1CCN(C(=O)NC(C(=O)N[C@H]2Cc3cccc(C(=O)O)c3OB2O)c2ccc(O)c(O)c2Cl)C(=O)C1=O (stereo partly drawn) [Example 235, (3R)-3-(2-(2-chloro-3,4-dihydroxyphenyl)-2-(4-(2-(3-ethylureido)ethyl)-2,3-dioxopiperazine-1-carboxamido)acetamido)-2-hydroxy-3,4-dihydro-2H-benzo[e][1,2]oxaborinine-8-carboxylic acid] | < 30 | – | < 0.25 | < 0.25 | MIC (A. baumannii ATCC 19606; [3]): 0.5 to 1 µg/mL
